Reference: the NIST ThermoML archive (doi:10.1021/je700132w)
± gives the expanded uncertainty stated by the source.

Settings: Liquid; for Critical pressure: Direct measurement; for Critical density: Rectilinear diameter; for Critical temperature: Visual observation in an unstirred cell

Critical pressure [kPa]	Critical density [kg/m3]	Critical temperature [K]	SMILES
7380 ± 60	473 ± 8	304.8 ± 0.6	O=C=O [carbon dioxide]
3620 ± 60	220 ± 6	409.9 ± 0.6	CC(C)C [2-methylpropane]
4000 ± 60	233 ± 7	421.2 ± 0.6	C=CCC [1-butene]

SMILES	Critical pressure [kPa]	Critical density [kg/m3]	Critical temperature [K]
CC(C)CC(C)(C)C [2,2,4-trimethylpentane]	2570 ± 60	251 ± 7	544.1 ± 0.6
